Data reported in patent publication US10927126B2, “Positive allosteric modulators of the muscarinic acetylcholine receptor M4” (Vanderbilt University, priority 2016, dated 2021).
Where a name gives a salt, the structure may show the parent alone.

target: T1, Human M4 (Homo sapiens, UniProt P08173); test: mAChR M4 cell-based functional assay (calcium flux, potentiation of EC20 acetylcholine response); design: Emax: dose or concentration left out as unconfirmed
T1 sequence (P08173 1-479): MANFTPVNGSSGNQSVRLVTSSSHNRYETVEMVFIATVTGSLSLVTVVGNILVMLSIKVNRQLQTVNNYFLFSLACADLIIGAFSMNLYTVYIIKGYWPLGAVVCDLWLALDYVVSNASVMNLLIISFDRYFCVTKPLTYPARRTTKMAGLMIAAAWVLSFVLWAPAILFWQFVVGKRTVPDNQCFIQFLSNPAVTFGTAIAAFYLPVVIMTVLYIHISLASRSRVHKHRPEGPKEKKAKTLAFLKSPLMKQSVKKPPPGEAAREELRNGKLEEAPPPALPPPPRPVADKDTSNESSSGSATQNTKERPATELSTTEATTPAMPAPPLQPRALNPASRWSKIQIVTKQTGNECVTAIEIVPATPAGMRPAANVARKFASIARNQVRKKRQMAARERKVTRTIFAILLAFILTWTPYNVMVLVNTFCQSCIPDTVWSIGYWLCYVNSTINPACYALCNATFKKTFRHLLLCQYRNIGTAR

EC50 [nM] | Emax [%] | Compound
4970 | 60.8 | COc1ccc(CNc2nccc3c2sc2nc(C)c(Cl)c(C)c23)cc1 [Compound 28, 3-Chloro-N-(4-methoxybenzyl)-2,4-dimethylthieno[2,3-b:5,4-c′]dipyridin-8-amine]
233 | 97.8 | Cc1cc(C)c2c(n1)sc1c(N3CCCC3)nccc12 [Compound 2, 2,4-dimethyl-8-(pyrrolidin-1-yl)thieno[2,3-b:5,4-c′]dipyridine]
1720 | 66.6 | Cc1nnc2sc3c(NCc4ccc(C(F)(F)F)c(F)c4)nccc3c2c1C [Compound 17, N-[[3-fluoro-4-(trifluoromethyl)phenyl]methyl]-3,4-dimethyl-pyrido[4′,3′:4,5]thieno[2,3-c]pyridazin-8-amine hydrochloride]
1100 | 102 | Cc1cc(C)c2c(n1)sc1c(NCc3ccc(C(C)(C)O)cc3F)nccc12 [Compound 27, 2-(4-(((2,4-dimethylthieno[2,3-b:5,4-c′]dipyridin-8-yl)amino)methyl)-3-fluorophenyl)propan-2-ol]
124 | 67 | Cc1cc(C)c2c(n1)sc1c(NC3CCCC3)nccc12 [Compound 1, N-cyclopentyl-2,4-dimethylthieno[2,3-b: 5,4-c]dipyridin-8-amine]
374 | 55.9 | Cc1c(C(F)F)nnc2sc3c(N4CCCC4)nccc3c12 [Compound 40, 3-(Difluoromethyl)-4-methyl-8-(pyrrolidin-1-yl)pyrido[4′,3′:4,5]thieno[2,3-c]pyridazine]
280 | 80.6 | COc1nnc2sc3c(NC4CN(c5ncc(C(F)(F)F)cn5)C4)nccc3c2c1C [Compound 38, 3-methoxy-4-methyl-N-(1-(5-(trifluoromethyl)pyrimidin-2-yl)azetidin-3-yl)pyrido[4′,3′:4,5]thieno[2,3-c]pyridazin-8-amine]
150 | 80.1 | Cc1cc(C)c2c(n1)sc1c(NC3CN(c4ncc(C(F)(F)F)cn4)C3)nccc12 [Compound 24, 2,4-dimethyl-N-(1-(5-(trifluoromethyl)pyrimidin-2-yl)azetidin-3-yl)thieno[2,3-b:5,4-c′]dipyridin-8-amine]
194 | 81.5 | Cc1nnc2sc3c(NCc4ccc(F)c(F)c4)nccc3c2c1C [Compound 16, N-[(3,4-difluorophenyl)methyl]-3,4-dimethyl-pyrido[4′,3′:4,5]thieno[2,3-c]pyridazin-8-amine hydrochloride]
12.1 | 74.8 | Cc1nnc2sc3c(NC4CC4)nccc3c2c1C [Compound 8, N-cyclopropyl-3,4-dimethyl-pyrido[4′,3′:4,5]thieno[2,3-c]pyridazin-8-amine hydrochloride]
185 | 97.6 | COc1ccc(CNc2nccc3c2sc2nnc(Cl)c(C)c23)cc1F [Compound 36, 3-chloro-N-(3-fluoro-4-methoxybenzyl)-4-methylpyrido[4′,3′:4,5]thieno[2,3-c]pyridazin-8-amine]
327 | 101 | Cc1cc(C)c2c(n1)sc1c(NCc3ccc(C(C)(C)O)cc3)nccc12 [Compound 26, 2-(4-(((2,4-dimethylthieno[2,3-b:5,4-c′]dipyridin-8-yl)amino)methyl)phenyl)propan-2-ol]
25.4 | 101 | Cc1c(Cl)nnc2sc3c(N4CCCC4)nccc3c12 [Compound 35, 3-chloro-4-methyl-8-(pyrrolidin-1-yl)pyrido[4′,3′:4,5]thieno[2,3-c]pyridazine]
351 | 36.5 | Cc1nnc2sc3c(N4CCCC4)ncc(Cl)c3c2c1C [Compound 23, 5-Chloro-3,4-dimethyl-8-pyrrolidin-1-yl-pyrido[4′,3′:4,5]thieno[2,3-c]pyridazine Hydrochloride]
164 | 74.2 | Cc1nnc2sc3c(NC4CN(c5ccc(F)c(F)c5)C4)nccc3c2c1C [Compound 19, N-[1-(3,4-difluorophenyl)azetidin-3-yl]-3,4-dimethyl-pyrido[4′,3′:4,5]thieno[2,3-c]pyridazin-8-amine hydrochloride]
23.6 | 91.4 | Cc1c(Cl)nnc2sc3c(NC4CCC4)nccc3c12 [Compound 34, 3-chloro-N-cyclobutyl-4-methylpyrido[4′,3′:4,5]thieno[2,3-c]pyridazin-8-amine]
53.9 | 85.3 | Cc1c(Cl)nnc2sc3c(NC4CN(c5ncc(C(F)(F)F)cn5)C4)nccc3c12 [Compound 33, 3-chloro-4-methyl-N-(1-(5-(trifluoromethyl)pyrimidin-2-yl)azetidin-3-yl)pyrido[4′,3′:4,5]thieno[2,3-c]pyridazin-8-amine, 2,2,2-trifluoroacetic acid salt]
1540 | 72.9 | Cc1nc2sc3c(NCc4ccc(C(C)(C)O)cc4)nccc3c2c(C)c1Cl [Compound 29, 2-(4-(((3-chloro-2,4-dimethylthieno[2,3-b:5,4-c′]dipyridin-8-yl)amino)methyl)phenyl)propan-2-ol]
58.1 | 77.5 | COc1ccc(CNc2nccc3c2sc2nnc(Cl)c(C)c23)cc1 [Compound 32, 3-chloro-N-(4-methoxybenzyl)-4-methylpyrido[4′,3′:4,5]thieno[2,3-c]pyridazin-8-amine]
442 | 56.1 | Cc1c(C(F)F)nnc2sc3c(N4CC(c5ccncc5)C4)nccc3c12 [Compound 42, 3-(difluoromethyl)-4-methyl-8-(3-(pyridin-4-yl)azetidin-1-yl)pyrido[4′3′:4,5]thieno[2,3-c]pyridazine]
679 | 88.6 | Cc1nnc2sc3c(NCc4ccc(OCC5CC5)c(F)c4)nccc3c2c1C [Compound 18, N-[[4-(cyclopropylmethoxy)-3-fluoro-phenyl]methyl]-3,4-dimethyl-pyrido[4′,3′:4,5]thieno[2,3-c]pyridazin-8-amine hydrochloride]
202 | 81.9 | Cc1cc(C)c2c(n1)sc1c(N(C)C)nccc12 [Compound 4, N,N,2,4-tetramethylthieno[2,3-b:5,4-c′]dipyridin-8-amine]
1880 | 54.8 | Cc1c(C(F)F)nnc2sc3c(N4CC5(COC5)C4)nccc3c12 [Compound 41, 6-(3-(difluoromethyl)-4-methylpyrido[4′,3′:4,5]thieno[2,3-c]pyridazin-8-yl)-2-oxa-6-azaspiro[3.3]heptane]
23.4 | 93.2 | COc1nnc2sc3c(NC4CCC4)nccc3c2c1C [Compound 39, N-cyclobutyl-3-methoxy-4-methylpyrido[4′,3′:4,5]thieno[2,3-c]pyridazin-8-amine]
39.6 | 85.6 | Cc1nnc2sc3c(NCc4ccc(C(C)(C)O)c(F)c4)nccc3c2c1C [Compound 20, 2-[4-[[(3,4-dimethylpyrido[4′,3′:4,5]thieno[2,3-c]pyridazin-8-yl)amino]methyl]-2-fluoro-phenyl]propan-2-ol]
> 10000 | 90.3 | COc1ccc(CNc2nccc3c2sc2nc(C)cc(C)c23)cc1F [Compound 25, N-(3-fluoro-4-methoxybenzyl)-2,4-dimethylthieno[2,3-b:5,4-c′]dipyridin-8-amine]
562 | 76.4 | COc1ccc(CNc2nccc3c2sc2nnc(OC)c(C)c23)cc1 [Compound 37, 3-Methoxy-N-(4-methoxybenzyl)-4-methylpyrido[4′,3′:4,5]thieno[2,3-c]pyridazin-8-amine]
34.3 | 97.4 | Cc1nnc2sc3c(NCc4ccc(C(C)(C)O)cc4)nccc3c2c1C [Compound 15, 2-[4-[[(3,4-dimethylpyrido[4′,3′:4,5]thieno[2,3-c]pyridazin-8-yl)amino]lmethyl]phenyl]propan-2-ol]

Compound | EC50 [nM] | Emax [%]
Cc1nnc2sc3c(NC4CN(c5ncc(C(F)(F)F)cn5)C4)nccc3c2c1C [Compound 10, 3,4-dimethyl-N-[1-[5-(trifluoromethyl)pyrimidin-2-yl]azetidin-3-yl]pyrido[4′,3′:4,5]thieno[2,3-c]pyridazin-8-amine hydrochloride] | 67.1 | 74.4
Cc1nnc2sc3c(NC4CN(c5ncc(F)cn5)C4)nccc3c2c1C [Compound 12, N-[1-(5-fluoropyrimidin-2-yl)azetidin-3-yl]-3,4-dimethyl-pyrido[4′,3′:4,5]thieno[2,3-c]pyridazin-8-amine hydrochloride] | 18.2 | 77.4
Cc1cc(C)c2c(n1)sc1c(NC3CCC3)nccc12 [Compound 3, N-cyclobutyl-2,4-dimethylthieno[2,3-b:5,4-c′]dipyridin-8-amine dihydrochloride] | 84.9 | 89.8
Cc1nnc2sc3c(N4CCCC4)nccc3c2c1C [Compound 6, 3,4-dimethyl-8-pyrrolidin-1-yl-pyrido[4′,3′:4,5]thieno[2,3-c]pyridazine hydrochloride] | 23.6 | 73
Cc1nnc2sc3c(NC4CCC4)nccc3c2c1C [Compound 7, N-cyclobutyl-3,4-dimethyl-pyrido[4′,3′:4,5]thieno[2,3-c]pyridazin-8-amine hydrochloride] | 59.8 | 80.2
COc1ccc(CNc2nccc3c2sc2nnc(C)c(C)c23)cc1F [Compound 14, N-[(3-fluoro-4-methoxy-phenyl)methyl]-3,4-dimethylpyrido[4′,3′:4,5]thieno[2,3-c]pyridazin-8-amine hydrochloride] | 14.3 | 91.3
